The assay deals with T1, SCD (stearoyl-CoA desaturase) (Rattus norvegicus, UniProt P07308).
T1 construct: The rat liver microsomes were collected according to the procedure described in Ozols (1990) Methods Enzm, 182:225; from tissue; host or cells: liver microsomes of male Sprague Dawley rats, SCD induced by a carbohydrate-rich diet
T1 sequence (P07308 1-358): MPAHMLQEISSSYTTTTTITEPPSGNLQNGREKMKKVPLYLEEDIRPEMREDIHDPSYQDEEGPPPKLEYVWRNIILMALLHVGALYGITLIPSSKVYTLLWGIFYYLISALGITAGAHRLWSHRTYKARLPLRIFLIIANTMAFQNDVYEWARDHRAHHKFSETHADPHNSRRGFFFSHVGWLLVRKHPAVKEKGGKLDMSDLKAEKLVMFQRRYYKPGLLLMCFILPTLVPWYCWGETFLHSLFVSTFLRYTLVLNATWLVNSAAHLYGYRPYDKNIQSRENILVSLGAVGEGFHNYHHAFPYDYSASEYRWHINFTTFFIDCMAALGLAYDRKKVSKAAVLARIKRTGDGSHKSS
The assay can be described thus: SCD assay with rat liver microsomes, [3H]stearoyl CoA (adapted from Talamo and Bloch). Type of assay: biochemical. The following applies: rat liver microsomes 0.2 mg/ml final, 30 min preincubation, 45 min reaction at room temperature. An excerpt: The identification of compounds of the invention as SCD inhibitors was readily accomplished using the SCD enzyme and microsomal assay procedure described in Talamo and Bloch (1969) Analytical Biochemistry 29:300-304.
The rat liver microsomes were collected according to the procedure described in Ozols (1990) Methods Enzm, 182:225.
Male Sprague Dawley Rats were placed on regimented fasting protocol for one week to stimulate SCD enzymatic activity. 48-hour periods were alternated between feeding and fasting to induce and down-regulate SCD activity with SCD activity being induced via carbohydrate rich diet prior to liver perfusion and collection.
The rats were anesthetized with Isoflurane inhalation anesthetic, the liver perfused with cold phosphate buffered saline (PBS), weighed, and chilled in cold homogenization buffer (250 mM sucrose, […] Tris, 1 mM EDTA, pH 7.6.
The livers were finely minced and placed in homogenization tube. 40 mL of homogenization buffer was added to the homogenization tube and the liver homogenized and centrifuged in a pre-chilled SLA-600 TC at 800G rotor for 10 min at 4° C.
Following centrifugation, the supernatant was collected and the pellet removed and discarded. The supernatant was centrifuge at 10,000 G for 35 minutes. Following centrifugation, the supernatant was collect and the pellet discarded. The supernatant was then centrifuged in a pre-chilled 45-Ti rotor at 130,000 G (41,000 RPM) for 90 minutes at 4° C.
The supernatant was then aspirated off and the collected microsomal pellet washed in 25 mL of Glycerol PBS (1×PBS 7.4, 20% Glycerol) and resuspended in 4-5 volumes of Glycerol PBS.
The protein concentration of the microsomal preparation was determined by BCA assay (Pierce) and the microsomes were aliquoted and stored at −80° C.
SCD was determined in the desaturase assay buffer. This assay buffer contained 0.1 M Tris buffer, pH 7.2, 2 mM NADH, 4.8 mM ATP, 0.5 mM CoA, 4.8 mM MgCl2, and 0.1% BSA.
The Procedure for the SCD Assay (Adapted from Talamo and Bloch (1969) Analytical Biochemistry 29:300-304)
1 μl of each compound of Formula I was added to an assay plate by a low volume (0.5-10 μL) multichannel pipette. A DMSO control was also prepared. The microsomes were quickly thawed and added to assay buffer so that a concentration of 0.4 mg/ml was achieved (0.2 mg/ml assay final). 50 μl of the microsome suspension in assay buffer was then added into each well in the compound assay plate, the plate was covered, and the microsomes preincubated with the compounds for 30 minutes on the orbital shaker, 50-75 rpm, at room temperature. […]

Data on 4 compounds can be found in patent publication US20100267752A1, “3-HYDROQUINAZOLIN-4-ONE DERIVATIVES FOR USE AS STEAROYL CoA DESATURASE INHIBITORS” (Gilead Palo Alto, Inc., priority 2008, published 2010).

The term IC50 denotes the concentration needed to halve the response being measured. `O=C(CO)Nc1ccc2nc(Cc3ccc(Cl)c(Cl)c3)[nH]c(=O)c2c1` [IV., N-(2-(3,4-dichlorobenzyl)-4-oxo-3,4-dihydroquinazolin-6-yl)-2-hydroxyacetamide] returned a half-inhibitory concentration (IC50) of 930 nM.

In turn, `CC(=O)OCC(=O)Nc1ccc2nc(Cc3ccc(Cl)c(Cl)c3)[nH]c(=O)c2c1` [III., 2-(2-(3,4-dichlorobenzyl)-4-oxo-3,4-dihydroquinazolin-6-ylamino)-2-oxoethyl acetate] yielded an IC50 of 750 nM.

Compound `O=C(Nc1ccc2c(=O)[nH]c(Cc3ccc(Cl)c(Cl)c3)nc2c1)OCc1ccccc1` [I., benzyl 2-(3,4-dichlorobenzyl)-4-oxo-3,4-dihydroquinazolin-7-ylcarbamate] came in with a concentration for half-maximal inhibition (IC50) of 2500 nM.

`O=C(Nc1ccc2nc(Cc3ccc(Cl)c(Cl)c3)[nH]c(=O)c2c1)OCc1ccccc1` [II., benzyl 2-(3,4-dichlorobenzyl)-4-oxo-3,4-dihydroquinazolin-6-ylcarbamate] had an IC50 of 1200 nM.
